Data on 10 compounds can be found in patent US20260078335A1, “MICROBIAL ENHANCED COMPOSITIONS COMPRISING SURFACTANT BLENDS WHICH OVERCOME ANTAGONISTIC SURFACTANT INCOMPATIBILITY” (Stepan Company, priority 2023, published 2026).

Where two headings read alike, the source gives them in different places.

Common to all, as to format: cell-based
Assay [1] deals with pathogenic bacteria. Nature of the assay: preservative screening test, bacterial. Particulars: reduction of live count. As to the method:
(§1) A preservative screening study was performed to determine a sufficient amount of preservative to include in selected MEC formulations to provide efficacy against pathogenic bacteria and fungi. The base formulations used in the study were a formulation similar to Composition A from Example 5, but without the spores, and a formulation similar to the Example 14 formulation, but without the spores and 2-phenoxyethanol. Test formulations were prepared by adding different preservatives in different amounts to the base formulations. Each test formulation was tested for efficacy against pathogenic organisms using a preservative screening test. For the screening test, microorganisms are grown separately according to industry standards described in PCPC Test Method M-7 “A Rapid Method for Preservation Testing of Water-Miscible Personal Care Products”, and combined as an inoculum challenge prior to introduction to the formulation test sample. The inoculum is added to each test formulation for predetermined time points, and after appropriate nutrition, the test formulations are evaluated for remaining live count. Reduction of live count is calculated against a control, and a sample showing sufficient percent reduction is accepted as an effectively preserved formulation. Table 4 provides the details of the preservative and amount used in each test formulation and the results of the screen testing.

Assay [2] relates to fungi. The experiment in a line: preservative screening test, fungal. Particulars: reduction of live count. As for the experimental part:
A preservative screening study was performed to determine a sufficient amount of preservative to include in selected MEC formulations to provide efficacy against pathogenic bacteria and fungi. […] Test formulations were prepared by adding different preservatives in different amounts to the base formulations. Each test formulation was tested for efficacy against pathogenic organisms using a preservative screening test. For the screening test, microorganisms are grown separately according to industry standards described in PCPC Test Method M-7 “A Rapid Method for Preservation Testing of Water-Miscible Personal Care Products”, and combined as an inoculum challenge prior to introduction to the formulation test sample. The inoculum is added to each test formulation for predetermined time points, and after appropriate nutrition, the test formulations are evaluated for remaining live count. Reduction of live count is calculated against a control, and a sample showing sufficient percent reduction is accepted as an effectively preserved formulation.

The subject of assay [3] is pathogenic bacteria and fungi. Nature of the assay: preservative screening test, overall result. As for the experimental part: as §1
For assay [4], the system named is beneficial microorganisms. The experiment in a line: compatibility with beneficial microorganisms (description, test not specified). Particulars: stated in the description, no test details. As for the experimental part:
Incompatibility between a surfactant and a beneficial microorganism has been investigated in various ways, such as a standard Zone of Inhibition test, a standard agar plating test, or a standard resazurin (7-hydroxy-10-oxidophenoxazin-10-ium-3-one, sodium) (a blue fluorogenic dye) compatibility assay. In a Zone of Inhibition test, microorganisms are grown, cultured, diluted down to target levels, and then applied to a Petri dish containing agar nutrients. Test samples containing the surfactant of interest are diluted and loaded into an agar well created within the agar nutrient. The plates are incubated and microorganism growth is allowed to develop. The test sample diffuses through the agar and, if the surfactant in the test sample has an inhibitory effect on the microorganism, a lack of growth halo will be observed around the sample loaded well. This halo is referred to as the zone of inhibition. The larger the zone, the bigger the effect of inhibition. Major suitability limitations for non-antibiotics test samples for this test method are inherent large dilution of active, agar diffusion challenges, and nutrient media incompatibilities (neutralization, precipitation, etc). Although this method has been used in the medical field for antibiotics very successfully for decades, it has low suitability when testing non-antibiotic samples. In a standard agar plating test, test samples containing the surfactant of interest and microorganisms are exposed, diluted several orders of magnitude, and plated onto a nutritive agar that is incubated. After an incubation period appropriate for the species, the microorganism growth pattern is evaluated against appropriate controls. […] The test samples are incubated and then inspected for colorometric and fluorescence change. Test samples that are blue and have low fluorescence indicate no biological activity and incompatibility between the surfactant and the microorganism. Test samples that are pink and have high fluorescence indicate biological activity and compatibility of the surfactant with the microorganism. […]

In assay [5] the test system is Bacillus spore blend. Nature of the assay: un-dyed EVOO test for germination and growth. The note with it: 0.2 wt % active surfactant, 1×10^7 CFU/g Bacillus spore blend; 5 days shaking; FIG. 11. As for the experimental part:
Replicate test compositions were prepared to evaluate the ability of the alkyl sarcosinate and alkyl betaine surfactant blend to overcome the antagonistic incompatibility between each surfactant individually and the bacterial spores. The formulation for testing comprised 20 wt % sodium lauroyl sarcosinate (30% actives), 32 wt % cetyl betaine (30% actives), 3.5 wt % of a commercially available Bacillus spore blend containing 100×10^9 CFU/g Bacillus spores, 4 wt % potassium nitrate, lactic acid (88% active) to adjust the pH to 5.5-6.0, and the remainder water. The test compositions were prepared by diluting the test formulation in water to 0.3% strength, and adding 2 wt % of 3.3 g/L Nutrient Mix (3 g/L Tryptic Soy broth and 0.3 g/L Yeast Extract). Germination and growth of bacterial spores were visually evaluated using an un-dyed EVOO test. […] Growth and biological activity of the microorganism is evident from haze that develops in the test composition, which can be visually detected. […]
The test compositions were visually evaluated for germination and growth of the bacterial spores using the un-dyed EVOO test described above, except that the test compositions were photographed after 5 days of orbital-mixer shaking at setting “5”.

Assay [6] relates to Bacillus spores.
[7] abbreviates: 1.5% active, base formula Example 5, pH 6.5-7.0.
The mark [8] stands for this setting: 1.5% active, base formula Example 5, pH 9.0.
Setting [9] is: 1.5% active, base formula Example 14, pH 9.0.
[10] abbreviates: 1.5% active, base formula Example 14, pH N/A.
Where [11] appears, read: 1.0% active, base formula Example 14, pH 5.0.
[12] abbreviates: resazurin assay, FIG. 1, inhibitory if composition with less than 1.0 g/L surfactant remains blue, no fluorescence.

Take `OCCOc1ccccc1` [2-phenoxyethanol]: the “Bacterial 24 hours” value is reported as under 50% in assay [1] (setting [7]), 99.4% in assay [1] (setting [8]) and 98.4% in assay [1] (setting [9]). The “Bacterial 7 days” value was under 50% in assay [1] (setting [7]), over 99.6% in assay [1] (setting [8]), over 99.6% in assay [1] (setting [9]) and 87.5% in assay [1] (setting [10]). The “Fungal 24 hours” value was under 50% in assay [2] (setting [7]), 29.3% in assay [2] (setting [8]) and 75.0% in assay [2] (setting [9]). For the same compound, the “Fungal 7 days” value in assay [2] (setting [7]) was under 50%; in assay [2] (setting [8]), under 50%; in assay [2] (setting [9]), 95.6%; in assay [2] (setting [10]) it was under 50%. Moreover, the “efficacy against pathogenic bacteria and fungi” value in assay [3] (1.5 wt %, even at a pH of 9.0, either base formulation) is listed as “not sufficient”.
For the compound `O=C(O)c1ccccc1` [Benzoic Acid], in assay [1] (setting [11]), the “Bacterial 24 hours” value is on record as over 99.6% and the “Bacterial 7 days” value is recorded as over 99.6%. Besides, in assay [2] (setting [11]), the “Fungal 24 hours” value came to 99.6% and the “Fungal 7 days” value stood at 99.6%. Also, the Result result in assay [3] (setting [11]) is reported as “Pass”.
As for `C=CCCCCCCCC(=O)N(C)C` [STEPOSOL® MET-10U], the “compatibility with the beneficial microorganisms” value in assay [4] is given as “compatible”.
Consider `O.O.O=C([O-])CC(O)(CC(=O)[O-])C(=O)[O-].[Na+].[Na+].[Na+]` [sodium citrate dihydrate], for which, in assay [4], the “compatibility with the beneficial microorganisms” value is given as “compatible”.
Take `O=C([O-])[C@H](O)[C@@H](O)[C@H](O)[C@H](O)CO.[Na+]` [sodium gluconate]: the “compatibility with the beneficial microorganisms” value in assay [4] is given as “compatible”.
On to `CCCCCCCCCCCCOS(=O)(=O)[O-].[Na+]` [sodium lauryl sulfate], for which the “germination and growth of bacterial spores” value in assay [5] is listed as “strong inhibition”.
In the case of cocoamidopropyl betaine [CAPB], in assay [6] (setting [12]), the “compatibility with Bacillus spores” value is reported as “inhibitory”.
With lauramine oxide, the “germination and growth of bacterial spores” value in assay [5] was “strong inhibition”.
Take “lauryl alcohol with 8 moles of ethylene oxide [laureth 8EO]”: in assay [6], the “compatibility with Bacillus spores” value is reported as “inhibitory”.
As to sodium lauryl ether sulfate 2EO [SLES], the “compatibility with Bacillus spores” value in assay [6] (setting [12]) is “inhibitory”.
